These results are taken from patent publication US9340577B2, “HLA binding motifs and peptides and their uses” (priority 1992, dated 2016).

No end group written: not given here.

Broadly, the IC50 is the concentration at which inhibition is half-maximal. Higher therefore signals a need for much substance.

Among the targets are HLA-A3.2 (A*0301) (Homo sapiens, UniProt P04439); HLA-A11 (A*1101) (Homo sapiens, UniProt P04439, A114D/D185E/E176A/F33Y/L180Q/S129P/T187R); A31 (A*3101) (Homo sapiens, UniProt P04439, A270S/D185E/E176V/E277Q/F33T/G231S/G80R/H175R/I121M/I218V/I322F/K168Q/L300P/L318F/M331R/P217A/Q94H/R138Q/T323A/T345S/T97I/V358M); A*3301 (Homo sapiens, UniProt P04439, A270S/D185E/E176V/E277Q/E87N/F33T/G231S/H175R/I121M/I218V/I322F/K168Q/K210R/L300P/L318F/M331R/P217A/Q86R/Q94H/R138Q/T323A/T345S/T97I/V358M/Y195H); A*6801 (Homo sapiens, UniProt P04439, A269V/D185E/E176V/E277Q/E87N/F33Y/G231S/I121M/I166T/I218V/L180W/L300P/L318F/N151K/P208A/P217A/Q86R/R169H/T345S).

Assay in all cases: biochemical
Common to all, as to type: binding

For the compound AACWRSRRR [Peptide 78.0322], the IC50 against HLA-A3.2 (A*0301) is 5600 nM; on HLA-A11 (A*1101) it was 18800 nM; at A31 (A*3101), 407 nM; against A*3301, 17500 nM; against A*6801, > 20000 nM.
On to TLYAEPPK [Peptide 1556.12], for which the IC50 is 734 nM on HLA-A3.2 (A*0301); 269 nM at HLA-A11 (A*1101); > 20000 nM against A31 (A*3101); > 20000 nM against A*3301; 1980 nM on A*6801.
As to VVVKSPNHVK [Peptide 9012.0255], the IC50 is 256 nM at HLA-A3.2 (A*0301); 88 nM against HLA-A11 (A*1101); 7700 nM against A31 (A*3101); > 20000 nM against A*3301; 320 nM on A*6801.
For DLPSQIEHWK [Peptide 88.0212] the same measures were > 20000 nM, > 20000 nM, > 20000 nM, > 20000 nM and 25 nM.
For AQVLHLLKRK [Peptide 1587.52], the half-inhibitory concentration (IC50) at HLA-A3.2 (A*0301) was 339 nM; against HLA-A11 (A*1101), 308 nM; on A31 (A*3101), 18200 nM; at A*3301, > 20000 nM; against A*6801, > 20000 nM.
Turning to MTYVAWDSVY [Peptide 1589.07], the 50% inhibitory concentration (IC50) on HLA-A3.2 (A*0301) is 616 nM; at HLA-A11 (A*1101) it was 892 nM; at A31 (A*3101), 19400 nM; against A*3301, > 20000 nM; on A*6801 it was 73 nM.
For AILGHIVRPR [Peptide 9017.0226] the same measures were 49 nM, 160 nM, 7.1 nM, 240 nM and 234 nM.
For the compound `CC(C)C[C@H](NC(=O)[C@H](Cc1c[nH]cn1)NC(=O)[C@H](CO)NC(=O)[C@H](CO)NC(=O)[C@H](Cc1c[nH]cn1)NC(=O)[C@H](C)NC(=O)[C@@H](N)CCCNC(=N)N)C(=O)N[C@@H](CCCCN)C(=O)O` [Peptide 1556.70], the 50% inhibitory concentration (IC50) is 27 nM against HLA-A3.2 (A*0301); 18 nM against HLA-A11 (A*1101); 619 nM against A31 (A*3101); > 20000 nM on A*3301; 2880 nM against A*6801.
For QQMFLGTVK [Peptide 88.0415] the same measures were 2040 nM, 22 nM, 7170 nM, > 20000 nM and 1580 nM.
For TFWNPPTTAR [Peptide 1556.02] the same measures were 18100 nM, 1500 nM, 57 nM, 40 nM and 29 nM.
For SSIVGWPAVR [Peptide 9017.0185] the same measures were 3170 nM, 22 nM, 26 nM, 648 nM and 14 nM.
Regarding HLFTYSWYK [Peptide 76.0164], the concentration for half-maximal inhibition (IC50) was found to be 4.9 nM at HLA-A3.2 (A*0301); 7.7 nM at HLA-A11 (A*1101); 35 nM against A31 (A*3101); 137 nM at A*3301; 19 nM against A*6801.
For YGFRLGFLK [Peptide 1556.27] the same measures were 41 nM, 1 nM, 224 nM, 839 nM and 16 nM.
For KVSPIVHLK [Peptide 1589.42] the same measures were 21 nM, 30 nM, 6 nM, > 20000 nM and 25 nM.
For FTAFLVAFK [Peptide 88.0389] the same measures were 45 nM, 15 nM, 663 nM, 76 nM and 23 nM.
For VTIRVGGQLR [Peptide 1516.07], the half-maximal inhibitory concentration (IC50) on HLA-A3.2 (A*0301) amounted to 3260 nM; against HLA-A11 (A*1101) it was 17 nM; on A31 (A*3101), 32 nM; against A*3301, 9430 nM; against A*6801, 28 nM.
NSNAAAFLK [Peptide 88.0342]: the 50% inhibitory concentration (IC50) was 955 nM on HLA-A3.2 (A*0301); 19 nM at HLA-A11 (A*1101); 2640 nM against A31 (A*3101); 665 nM on A*3301; 22 nM at A*6801.
For the compound SFSELVRPFK [Peptide 1587.03], the IC50 against HLA-A3.2 (A*0301) was 4250 nM; at HLA-A11 (A*1101) it was 551 nM; against A31 (A*3101) it was 2 nM; on A*3301, 24 nM; against A*6801 it was 5340 nM.
For WLIKRIRER [Peptide 9017.0122] the same measures were 5160 nM, > 20000 nM, 85 nM, 20 nM and 50 nM.
For KLGIVTITY [Peptide 88.0428] the same measures were 65 nM, 3430 nM, > 20000 nM, > 20000 nM and > 20000 nM.
For TLWNPPTTAK [Peptide 1556.04] the same measures were 22 nM, 107 nM, 6830 nM, 2240 nM and 438 nM.
Take SVYGDTLEK [Peptide 78.0277]: the IC50 on HLA-A3.2 (A*0301) was 72 nM; against HLA-A11 (A*1101), 14 nM; against A31 (A*3101) it was > 20000 nM; against A*3301, > 20000 nM; against A*6801, 17 nM.
For the compound KIDWLIKRIR [Peptide 9017.0248], the IC50 is 8650 nM against HLA-A3.2 (A*0301); 8630 nM on HLA-A11 (A*1101); 19 nM against A31 (A*3101); 6690 nM against A*3301; > 20000 nM against A*6801.
For LVYQDTILWK [Peptide 9012.0221] the same measures were 199 nM, 32 nM, > 20000 nM, > 20000 nM and 155 nM.
Regarding LQGKLYYKFK [Peptide 88.0184], the IC50 against HLA-A3.2 (A*0301) is 724 nM; on HLA-A11 (A*1101), 130 nM; against A31 (A*3101) it was 3710 nM; on A*3301, 16200 nM; at A*6801, > 20000 nM.
For WTIAYIEYRK [Peptide 9017.0244] the same measures were 4650 nM, 62 nM, 885 nM, 493 nM and 1.2 nM.
For ITVSAELPR [Peptide 1556.18] the same measures were > 20000 nM, 739 nM, 6930 nM, 8710 nM and 25 nM.
For KLFLKGVPK [Peptide 1587.41] the same measures were 16 nM, 17 nM, 1.5 nM, 9680 nM and > 20000 nM.
For the compound VTIYYGVPVWR [Peptide 1525.04], the IC50 against HLA-A3.2 (A*0301) stood at 920 nM; on HLA-A11 (A*1101), 3 nM; on A31 (A*3101) it was 4 nM; against A*3301 it was 51 nM; at A*6801 it was 3.4 nM.
On to TIAYIEYRK [Peptide 9017.0119], for which the IC50 against HLA-A3.2 (A*0301) was 911 nM; against HLA-A11 (A*1101) it was 24 nM; at A31 (A*3101) it was 3300 nM; against A*3301, 892 nM; at A*6801, 7.8 nM.
With ETQRQQFLK [Peptide 1589.32], the IC50 at HLA-A3.2 (A*0301) amounted to 1010 nM; against HLA-A11 (A*1101), 28 nM; against A31 (A*3101) it was 3920 nM; against A*3301 it was 80 nM; against A*6801, 30 nM.
Turning to ALFTAQEAK [Peptide 88.0323], the IC50 against HLA-A3.2 (A*0301) was determined as 28 nM; on HLA-A11 (A*1101), 13 nM; on A31 (A*3101) it was 2660 nM; on A*3301, 16100 nM; at A*6801, 603 nM.
For EFTAFLGAFK [Peptide 88.0167] the same measures were 4670 nM, 293 nM, > 20000 nM, 35 nM and 197 nM.
For HLFGYSYYK [Peptide 76.0191] the same measures were 11 nM, 2.7 nM, 1800 nM, 3470 nM and 14 nM.
For LFYSKVRKYK [Peptide 88.0098] the same measures were 680 nM, 2580 nM, 18 nM, 30 nM and 1980 nM.
As to TTNCTYKGR [Peptide 1589.41], the IC50 was > 20000 nM at HLA-A3.2 (A*0301); 2210 nM on HLA-A11 (A*1101); 58 nM at A31 (A*3101); 165 nM at A*3301; 38 nM against A*6801.
For KTASVGTPK [Peptide 1589.27] the same measures were 11 nM, 13 nM, 44 nM, > 20000 nM and 8.5 nM.
For HLYGYSWYK [Peptide 76.0153] the same measures were 12 nM, 11 nM, 48 nM, 61 nM and 16 nM.
For RINTWKSLVK [Peptide 9017.0215], the IC50 against HLA-A3.2 (A*0301) is 12 nM; against HLA-A11 (A*1101), 10 nM; at A31 (A*3101) it was 632 nM; at A*3301, > 20000 nM; against A*6801, 11500 nM.
